Tests used:
[1] = system: whole cell soluble lysate of neuronally differentiated PC12 cells; assay: total ATPase activity in clarified whole cell lysates; type: biochemical
Protocol: Figure 3 Effects of KUSs on ATPase activities, ATP levels, and acetyl-CoA levels. (a) Inhibition of ATPase activity in clarified whole cell lysates by KUS121, KUS187, and KUS94, but not KUS11. Total ATPase activities in clarified whole cell lysates from differentiated PC12 cells were measured in the absence and presence of KUSs. Relative ATPase activities are shown with values in the absence of KUS (D: DMSO) set at 100%. (b) HeLa cells were cultured in medium with low glucose (0.25 g/l) for 20 hours, with or without KUSs, and ATP levels were measured with luciferase assays. (c) HeLa cells were cultured in medium with low glucose (0.25 g/l) for 20 hours, with or without KUSs, and acetyl-CoA levels were measured. * P < 0.05, ** P < 0.01, *** P < 0.001 vs. DMSO control (Dunnett's test, n = 3).
We measured ATPase activities by modifying the molybdate assay, which was as described previously. In the assay, 1 μg of whole cell soluble lysate of neuronally differentiated PC12 cells, or 500 ng recombinant VCP protein, was incubated in 20 μl of the ATPase assay buffer (20 mM HEPES (pH 7.4), 50 mM KCl, 5 mM MgCl2) with 100 μM [γ-^32P]ATP (18.5 GBq/mmol) (PerkinElmer) at 37°C for 20 min. After incubation, the reaction was quenched by addition of 200 μl of 8% ice-cold trichloroacetic acid solution with 1 mM K2HPO4, and then 50 μl of solution A (3.75% ammonium molybdate, 0.02 M silicotungstic acid in 3 N H2SO4) and 300 μl of n-butyl acetate were added to the reaction. The samples were mixed well and centrifuged at 12,000 × g for 1 min. Then, 200 μl aliquots from the upper organic phases were taken and their radioactivity was determined with a liquid scintillation counter for β-radiation, which determined the amounts of ^32P released.

[2] = system: retinal neuronal cells; assay: retinal organ culture with NMDA insult; type: cell-based, mouse; details: 200 µM NMDA, 50 µM KUS121, 4 days
Protocol: Supplementary Figure Legends
Supplementary Figure 1 Inhibitory effects of KUS121, KUS187, and DBeQ on the ATPase activity of recombinant VCP purified from E. coli.
Supplementary Figure 2 (a) HeLa cells were cultured in medium with low glucose (0.25 g/l) for 20 hours, with or without KUSs, and ATP levels were measured with luciferase assays. *** P < 0.005 vs. DMSO control (Dunnett’s test, n=3). HG: medium with 4.5 g/l glucose. Error bars indicate SD. (b) HeLa cells were cultured in medium with low glucose (0.2 g/l) for 20 hours, with DMSO or KUSs, and ATP and ADP levels were measured by HPLC. The respective ratios of ATP/ADP are shown. * P < 0.05, ** P < 0.01 vs. DMSO control (Dunnett’s test, n=3). Error bars indicate SD. (c) HeLa cells were cultured in medium without glucose for 6 hours, with (50 µM each KUS, as indicated) or without KUSs, and acetyl-CoA levels were measured by HPLC.
Supplementary Figure 3 Immunohistochemical analyses of retinal neuronal cells.
Retinal sections of 5-month-old C57BL/6 mice were stained with (b) or without (a) an anti-VCP antibody12, developed with diaminobenzidine and counter-stained with hematoxylin (a, b). Note that all retinal neuronal cells highly expressed VCP. GCL: ganglion cell layer, IPL: inner plexiform layer, INL: inner nuclear layer, OPL: outer plexiform layer, ONL: outer nuclear layer, IS: inner segment, OS: outer segment.
Retinas from adult C57BL/6 mice were cultured on porous membrane with 200 µM of NMDA with or without KUS121 (50 µM) for 4 days. (a) HE-stained retinal sections.
In the retina cultured with KUS121, the inner nuclear layer (INL), inner plexiform layer (IPL), ganglion cell layer (GCL), and retinal nerve fiber layer (RNFL) were thicker than that of the retina without KUS121. (b) TUNEL staining of the retinal […]
Supplementary Figure 5 (a) Cross sectional (vertical) images obtained by spectral-domain optical coherence tomography (SD-OCT) in 21-day-old C57BL/6 wild-type (WT) and rd10 mice with or without KUSs. […] (c) The mean amplitude of the a-wave (measured at 25 msec), which is derived from photoreceptors, in KUS-treated […]

Cc1cc(F)ccc1-c1ccc(/N=N/c2cc(S(=O)(=O)O)c3ccccc3c2N)cn1 [KUS121]
lowering of total ATPase activity ([1]; 100 nM compound): approximately 20%
lowering of total ATPase activity ([1]; 1 μM compound): ~40%
TUNEL-positive apoptotic cells [2]: More TUNEL-positive apoptotic cells (green) were observed in the retina
thickness of INL, IPL, GCL and RNFL (HE-stained sections) ([2]; vs retina without KUS121): thicker
protection of retinal neuronal cells from NMDA insult ([2]; retinas from adult C57BL/6 mice): protects retinal neuronal cells from NMDA insult

From publication PMC4122966, “Novel VCP modulators mitigate major pathologies of rd10, a mouse model of retinitis pigmentosa” (Scientific Reports, 2014)
